# Measured values reported in patent US20110318403A1, “Preparation and Use of Pouteria Lucuma Extract” (priority 2008, published 2011).
# Key:
# [1] = tested on: dermal wounds of CD-1 mice; assay: CD-1 mouse excision wound healing assay; type: in vivo; details: topical once daily, 10 μg/mouse, CT50 ± SE
# Experimental: The LNO extract of Example 1 was further used in two in vivo models to assess wound healing and regeneration. […] In this experiment, a 12 mm skin punch was used to create a wound in mice and the mice were then divided into three groups, i.e., a negative control group, an experimental group and a positive control group. Immediately following wounding, the wounds were treated for ten days with either vehicle (0.5% carboxymethylcellulose in PBS), lucuma nut oil (LNO) (200 μg/mouse) in vehicle, or the positive control CGS-21680 (CAS120225-54-9, a specific adenosine A2A receptor agonist offered commercially by Tocris; see U.S. Pat. No. 4,968,697), also in vehicle. […] Wound healing assays were performed by MDS Pharma Services, Taiwan, MDSPS Testing Code 1115924, according to the protocol describe elsewhere (Kapoor, et al., J. Clin. Invest., 118:3279-3290 (2008); Montesinos, et al., J. Exp. Med., 186:1615-1620 (1997), each description incorporated herein by reference). Briefly, groups of 5 male CD-1 mice weighing 22±2 g were used for this assay. […] The wounded area was traced onto clear plastic sheets on days 3, 5, 7, 9 and 11 and quantitated by using an Image Analyzer (Life Science Resources VISTA, Version 30). […]
# [2] = tested on: transgenic zebrafish larvae tail fin (GFP-positive endothelial cells); assay: zebrafish larvae tailfin primordia amputation regeneration / angiogenesis assay; type: in vivo; details: 48 hours after amputation
# Excerpt: A tailfin model of in vivo wound healing and regeneration was also used to assess the ability of a lucuma nut oil extract to promote appropriate wound healing, and the results of these assays also provided information on the angiogenic properties of LNO. In this transgenic model, the fli1 promoter drives expression of green fluorescent protein (GFP) in all the vascular endothelial cells, which allows tracking of wound healing in real time by direct observation of angiogenesis. Forty-eight-hour-old or five-day-old zebrafish larvae (AB strain) were anesthetized in 0.04% 3-amino benzoic acid ethylester (tricaine; MS-222) and placed in 2% agar Petri dishes. Surgical blades were used to amputate tailfin primordia just posterior to the notochord. Larvae were placed in 24-well plates containing either water (control), CGS-21680 (50 μg/mL; CAS120225-54-9) or LNO (10-100 μg/mL in water) and incubated at 28° C. Primordia re-growth was measured using fluorescence microscopy and image analysis of fluorescent endothelial cells. For this assay, the fin fluorescent area was normalized against the total fin area. […] The effects of LNO were analyzed and compared to the positive control CGS-21680 (2-p-(2-Carboxyethyl)phenethylamino-5′-N-ethylcarboxamidoadenosine). […]
# [3] = tested on: Human neonatal fibroblasts; assay: scratched fibroblast assay (wound closure of monolayer); type: cell-based; details: equivalent concentrations of pure FAs (LA 24 μg/mL, OA 18 μg/mL), 24 hours
# Experimental: Human neonatal fibroblasts were maintained in Dulbecco's Modified Eagle Medium (D-MEM)+10% fetal bovine serum (FBS) and were kept in a humidified 37° C. incubator with 5% CO2. Cells were plated at a density of 1×10^4 cells per well in a 24-well plate and incubated for 24 hours, or until 100% confluency was reached. Each monolayer was wounded by dragging a pipette tip across the bottom of the well, using a straight edge as a guide (approximately 1.3 mm in width). The media was removed and cells were washed with 500 μL PBS twice to remove detached cells or cell debris. The cells were treated as follows: DMEM+10% FBS+vehicle (0.06% glycerol, positive control), DMEM+vehicle (0.06% glycerol, negative control), DMEM+vehicle (0.06% glycerol)+LNO (60 μg/mL), DMEM+vehicle (0.06% glycerol)+LA (24 μg/mL) and DMEM+vehicle (0.06% glycerol)+OA (18 μg/mL). Photos were taken of each well to measure the initial area of the wound. After 24 hours incubation, wells were photographed again. The scratched area was measured using […] Photoshop CS software, and percentage of wound closure at each time point was derived by the following formula: (1−[current wound size/initial wound size])×100.
SMILES,Dermal wound closure expressed as half-closure time (CT50) [1],GFP-positive endothelial cells in regenerating tail fin (angiogenesis) [2],cell migration in scratched fibroblasts compared with LNO 60 μg/mL [3]
"CCNC(=O)[C@H]1O[C@@H](n2cnc3c(N)nc(NCCc4ccc(CCC(=O)O)cc4)nc32)[C@H](O)[C@@H]1O [CGS, 2-p-(2-Carboxyethyl)phenethylamino-5′-N-ethylcarboxamidoadenosine]",6.04 ± 0.2 days,,
"CCCCC/C=C\C/C=C\CCCCCCCC(=O)O [LA, linoleic acid]",,not found,not able to reproduce the effect of LNO in cell migration
"CCCCCCCC/C=C\CCCCCCCC(=O)O [OA, oleic acid]",,not found,not able to reproduce the effect of LNO in cell migration
